# Measured values: patent publication US11254663B2 (BRISTOL-MYERS SQUIBB COMPANY, priority 2019, dated 2022)
# Biological target: FXR (Homo sapiens (Human), UniProt Q96RI1)
# Assay: transient human FXR/Gal4-luciferase reporter assay
# Assay type: cell-based
# Conditions: not given
# Summary of the method: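 Compound exposure ran overnight at 37 °C and activity was measured as luminescence with Steady-Glo reagent. The cells were a HEK293 line stably expressing firefly luciferase under five Gal4 response elements. They were transiently transfected, one night beforehand, with a plasmid encoding Gal4 DNA-binding domain fused to the human FXR ligand-binding domain.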
# Chain of FXR (Q96RI1 262-486): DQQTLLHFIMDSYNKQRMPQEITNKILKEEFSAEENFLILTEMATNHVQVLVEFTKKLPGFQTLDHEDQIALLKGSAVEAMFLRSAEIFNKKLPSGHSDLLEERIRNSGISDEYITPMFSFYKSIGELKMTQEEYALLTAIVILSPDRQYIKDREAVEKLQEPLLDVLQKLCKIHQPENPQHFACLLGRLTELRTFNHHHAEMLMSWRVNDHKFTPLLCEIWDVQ
row,Compound,EC50
1,"CC(C)(C)c1noc(C23CCC(CN(C(=O)C45CC(F)(C4)C5)c4cncc(-c5ccc(NS(C)(=O)=O)cc5)c4)(CC2)CC3)n1 [Example 475, N-((4-(3-(tert-butyl)-1,2,4-oxadiazol-5-yl)bicyclo[2.2.2]octan-1-yl)methyl)-3-fluoro-N-(5-(4-(methylsulfonamido)phenyl)pyridin-3-yl)bicyclo[1.1.1]pentane-1-carboxamide]",1600 nM
2,"Cc1nc2ccc(-c3cccc(N(CC45CCC(c6nc(C(F)F)no6)(CC4)CC5)C(=O)C45CC(F)(C4)C5)c3)cc2s1 [Example 471, N-((4-(3-(difluoromethyl)-1,2,4-oxadiazol-5-yl)bicyclo[2.2.2]octan-1-yl)methyl)-3-fluoro-N-(3-(2-methylbenzo[d]thiazol-6-yl)phenyl)bicyclo[1.1.1]pentane-1-carboxamide]",135 nM

# Same assay, conditions: Gal4-hFXR fusion construct, HEK293 reporter cells; response relative to 8 μM GW-4064
row,Compound,EC50
1,"CC1(C(=O)N(CC23CCC(c4noc(C(C)(C)C)n4)(CC2)CC3)c2cccc(-c3ccc(OC(F)F)cc3)c2)COC1 [Example 515, N-((4-(5-(tert-butyl)-1,2,4-oxadiazol-3-yl)bicyclo[2.2.2]octan-1-yl)methyl)-N-(4′-(difluoromethoxy)-[1,1′-biphenyl]-3-yl)-3-methyloxetane-3-carboxamide]",357 nM
2,"CC(C)(O)c1ccc(-c2cccc(N(CC34CCC(c5noc(C(C)(C)F)n5)(CC3)CC4)C(=O)NC3CCC(O)(C(F)(F)F)CC3)c2)cc1 (single isomer, unassigned) [Example 600, 1-((4-(5-(2-fluoropropan-2-yl)-1,2,4-oxadiazol-3-yl)bicyclo[2.2.2]octan-1-yl)methyl)-3-(4-hydroxy-4-(trifluoromethyl)cyclohexyl)-1-(4′-(2-hydroxypropan-2-yl)-[1,1′-biphenyl]-3-yl) urea]",16 nM
3,"CC(C)(C)c1noc(C23CCC(CN(C(=O)C45CC(F)(C4)C5)c4cccc(-c5cnc(NS(C)(=O)=O)nc5)c4)(CC2)CC3)n1 [Example 367, N-((4-(3-(tert-butyl)-1,2,4-oxadiazol-5-yl)bicyclo[2.2.2]octan-1-yl)methyl)-3-fluoro-N-(3-(2-(methylsulfonamido)pyrimidin-5-yl)phenyl)bicyclo[1.1.1]pentane-1-carboxamide]",645 nM
4,"COc1cc(-c2cccc(N(CC34CCC(c5cc(C(F)(F)F)ccn5)(CC3)CC4)C(=O)C34CC(F)(C3)C4)c2)ccn1 [Example 241, 3-fluoro-N-(3-(2-methoxypyridin-4-yl)phenyl)-N-((4-(4-(trifluoromethyl)pyridin-2-yl)bicyclo[2.2.2]octan-1-yl)methyl)bicyclo[1.1.1]pentane-1-carboxamide]",1060 nM
5,"O=C(N(CC12CCC(c3nc(C4CC4)no3)(CC1)CC2)c1cccc(-c2ccc(C(F)(F)F)cc2)c1)C12CC(F)(C1)C2 [Example 253, N-((4-(3-cyclopropyl-1,2,4-oxadiazol-5-yl)bicyclo[2.2.2]octan-1-yl)methyl)-3-fluoro-N-(4′-(trifluoromethyl)-[1,1′-biphenyl]-3-yl)bicyclo[1.1.1]pentane-1-carboxamide]",250 nM
6,"N-((4-(3-cyclopropyl-1,2,4-oxadiazol-5-yl)bicyclo[2.2.2]octan-1-yl)methyl)-3-fluoro-N-(3-morpholinophenyl)bicyclo[1.1.1]pentane-1-carboxamide [Example 417]",207 nM
7,"CC(C)(C)NC(=O)N(CC12CCC(c3noc(C(F)(F)F)n3)(CC1)CC2)c1cccc(-c2ccc(C(C)(C)OC(F)F)cc2)c1 [Example 613, 3-(tert-butyl)-1-(4′-(2-(difluoromethoxy)propan-2-yl)-[1,1′-biphenyl]-3-yl)-1-((4-(5-(trifluoromethyl)-1,2,4-oxadiazol-3-yl)bicyclo[2.2.2]octan-1-yl)methyl)urea]",79 nM
8,"O=C(N(CC12CCC(c3nc(C4CC4)no3)(CC1)CC2)c1cccc(-c2ccc(F)cn2)c1)C12CC(F)(C1)C2 [Example 287, N-((4-(3-cyclopropyl-1,2,4-oxadiazol-5-yl)bicyclo[2.2.2]octan-1-yl)methyl)-3-fluoro-N-(3-(5-fluoropyridin-2-yl)phenyl)bicyclo[1.1.1]pentane-1-carboxamide]",316 nM
9,"CCOc1ccc(-c2cccc(N(CC34CCC(c5nc(C(C)C)no5)(CC3)CC4)C(=O)C34CC(F)(C3)C4)c2)cn1 [Example 381, N-(3-(6-ethoxypyridin-3-yl)phenyl)-3-fluoro-N-((4-(3-isopropyl-1,2,4-oxadiazol-5-yl)bicyclo[2.2.2]octan-1-yl)methyl)bicyclo[1.1.1]pentane-1-carboxamide]",40 nM
10,"CC(C)(O)c1ccc(-c2cc(N(CC34CCC(c5noc(C(C)(C)F)n5)(CC3)CC4)C(=O)OC(C)(C)C(F)(F)F)ncc2F)cc1 [Example 620, 1,1,1-trifluoro-2-methylpropan-2-yl(5-fluoro-4-(4-(2-hydroxypropan-2-yl)phenyl)pyridin-2-yl)((4-(5-(2-fluoropropan-2-yl)-1,2,4-oxadiazol-3-yl)bicyclo[2.2.2]octan-1-yl)methyl) carbamate]",29 nM
11,"COc1cc(-c2cccc(N(CC34CCC(c5nnc(C)s5)(CC3)CC4)C(=O)C3CCC(F)(F)C3)c2)ccn1 (stereo not drawn) [Example 235, 3,3-difluoro-N-(3-(2-methoxypyridin-4-yl)phenyl)-N-((4-(5-methyl-1,3,4-thiadiazol-2-yl)bicyclo[2.2.2]octan-1-yl)methyl)cyclopentane-1-carboxamide]",895 nM
12,"CS(=O)(=O)Nc1ccc(-c2cccc(N(CC34CCC(c5cc(C(F)(F)F)ccn5)(CC3)CC4)C(=O)C34CC(F)(C3)C4)c2)cc1 [Example 355, 3-fluoro-N-(4′-(methylsulfonamido)-[1,1′-biphenyl]-3-yl)-N-((4-(4-(trifluoromethyl)pyridin-2-yl)bicyclo[2.2.2]octan-1-yl)methyl)bicyclo[1.1.1]pentane-1-carboxamide]",780 nM
13,"COc1nccc(-c2cccc(N(CC34CCC(c5nc(C6CC6)no5)(CC3)CC4)C(=O)C34CC(F)(C3)C4)c2)n1 [Example 242, N-((4-(3-cyclopropyl-1,2,4-oxadiazol-5-yl)bicyclo[2.2.2]octan-1-yl)methyl)-3-fluoro-N-(3-(2-methoxypyrimidin-4-yl)phenyl)bicyclo[1.1.1]pentane-1-carboxamide]",276 nM
14,"CC(C)(C)c1noc(C23CCC(CN(C(=O)C45CC(F)(C4)C5)c4cccc(-c5ccc(NS(C)(=O)=O)cc5)c4)(CC2)CC3)n1 [Example 361, N-((4-(3-(tert-butyl)-1,2,4-oxadiazol-5-yl)bicyclo[2.2.2]octan-1-yl)methyl)-3-fluoro-N-(4′-(methylsulfonamido)-[1,1′-biphenyl]-3-yl)bicyclo[1.1.1]pentane-1-carboxamide]",843 nM
15,"CC1(c2nc(C34CCC(CN(C(=O)C56CC(F)(C5)C6)c5cccc(-c6ccc(NS(C)(=O)=O)cc6)c5)(CC3)CC4)no2)CC1 [Example 398, 3-fluoro-N-((4-(5-(1-methylcyclopropyl)-1,2,4-oxadiazol-3-yl)bicyclo[2.2.2]octan-1-yl)methyl)-N-(4′-(methylsulfonamido)-[1,1′-biphenyl]-3-yl)bicyclo[1.1.1]pentane-1-carboxamide]",93 nM
16,"CC(C)(C)c1nc(C23CCC(CN(C(=O)C45CC(F)(C4)C5)c4ccnc(-c5cnc(C6CC6)nc5)c4)(CC2)CC3)no1 [Example 597, N-((4-(5-(tert-butyl)-1,2,4-oxadiazol-3-yl)bicyclo[2.2.2]octan-1-yl)methyl)-N-(2-(2-cyclopropylpyrimidin-5-yl)pyridin-4-yl)-3-fluorobicyclo[1.1.1]pentane-1-carboxamide]",226 nM
